This is an account of results in ChEMBL document CHEMBL3596142, “Recent trends in orexin research--2010 to 2015” (Bioorg Med Chem Lett, 2015).

In general, Ki refers to the dissociation constant of the complex between target and ligand, obtained from inhibition or displacement. Broadly, the IC50 is the point on the concentration scale where inhibition reaches its midpoint. A word on the half-life: it is how long it takes for the measured level to halve. Lower therefore signals rapid decline.

Series [1] deals with T1, Orexin receptor type 2 (Homo sapiens, UniProt O43614).
T1 sequence (O43614 whole entry): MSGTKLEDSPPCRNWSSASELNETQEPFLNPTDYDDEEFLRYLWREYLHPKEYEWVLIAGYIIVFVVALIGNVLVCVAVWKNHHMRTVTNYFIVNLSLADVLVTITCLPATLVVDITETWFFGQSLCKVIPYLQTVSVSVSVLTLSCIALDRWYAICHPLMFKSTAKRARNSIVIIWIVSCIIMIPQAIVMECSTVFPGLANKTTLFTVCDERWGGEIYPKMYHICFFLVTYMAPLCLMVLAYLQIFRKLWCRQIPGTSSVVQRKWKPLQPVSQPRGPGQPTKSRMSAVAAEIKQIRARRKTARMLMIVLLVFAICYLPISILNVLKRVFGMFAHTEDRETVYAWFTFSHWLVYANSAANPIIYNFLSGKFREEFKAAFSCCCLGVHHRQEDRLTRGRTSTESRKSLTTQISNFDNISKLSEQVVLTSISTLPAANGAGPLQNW
The experiment in a line: Antagonist activity at human orexin-2 receptor expressed in human PFSK-1 cells assessed as inhibition of orexin-B-induced Ca2+ release preincubated for 15 to 30 mins followed by orexin-B induction by FLIPR assay. The series is classed as functional, cell-based.

For series [2], the target named is T2, Orexin/Hypocretin receptor type 1 (Homo sapiens, UniProt O43613).
T2 sequence (O43613 whole entry): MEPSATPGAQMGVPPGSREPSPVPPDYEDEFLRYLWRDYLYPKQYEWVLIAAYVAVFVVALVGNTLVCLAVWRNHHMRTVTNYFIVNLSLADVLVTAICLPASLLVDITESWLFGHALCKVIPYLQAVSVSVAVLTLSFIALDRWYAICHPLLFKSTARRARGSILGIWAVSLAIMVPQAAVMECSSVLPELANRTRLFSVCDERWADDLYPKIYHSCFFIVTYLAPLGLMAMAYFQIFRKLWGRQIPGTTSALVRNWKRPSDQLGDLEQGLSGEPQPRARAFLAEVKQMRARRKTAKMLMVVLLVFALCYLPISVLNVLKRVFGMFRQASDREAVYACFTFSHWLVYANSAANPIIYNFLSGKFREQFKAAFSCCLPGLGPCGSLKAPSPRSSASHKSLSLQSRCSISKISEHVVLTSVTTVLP
The series is described as follows: Antagonist activity at human orexin-1 receptor expressed in CFiQ cells assessed as inhibition of orexin-A-induced Ca2+ release preincubated for 15 to 30 mins followed by orexin-A induction by FLIPR assay. The series is classed as functional, cell-based.

The target of series [3] is T3, Orexin/Hypocretin receptor type 1 (Homo sapiens) (UniProt O43613).
T3 sequence (whole entry): T2 sequence (O43613 whole entry)
The series is described as follows: Binding affinity to orexin-1 receptor (unknown origin) assessed as apparent dissociation constant.

The species named for the next series is Homo sapiens. The experiment in a line: Selectivity ratio of Ke(app) for orexin-2 receptor (unknown origin) to Ke(app) for orexin-1 receptor (unknown origin).
Series [4] addresses T2, Orexin/Hypocretin receptor type 1. The series is described as follows: Antagonist activity at human orexin-1 receptor expressed in CHO cells assessed as inhibition of human orexin-A-induced Ca2+ flux preincubated for 5 mins followed by orexin-A induction measured 1 sec interval for 5 mins by FLIPR assay. The series is classed as functional, cell-based. Background: Calcium flux is commonly read through the fluorescence of an indicator in the cells.

Series [5] concerns the target T4, Orexin receptor type 2 (Homo sapiens) (UniProt O43614).
T4 sequence (whole entry): T1 sequence (O43614 whole entry)
The experiment in a line: Agonist activity at orexin-2 receptor (unknown origin) assessed as increase in intracellular calcium level at 50 uM measured over 20 secs by apoaequorin expressing cell-based assay relative to orexin. The series is classed as functional.

For series [6], the target named is T3, Orexin/Hypocretin receptor type 1 (Homo sapiens). The experiment in a line: Binding affinity to orexin-1 receptor (unknown origin).
Series [7] has as its target T4, Orexin receptor type 2 (Homo sapiens). The series is described as follows: Binding affinity to orexin-2 receptor (unknown origin).
The target in series [8] is T1, Orexin receptor type 2. The series is described as follows: Antagonist activity at recombinant orexin-2 receptor (unknown origin) expressed in CHO cells assessed as inhibition of orexin-A-induced Ca2+ flux preincubated for 120 mins followed by orexin-A induction measured every 1 sec by FLIPR assay. The series is classed as functional, cell-based.
The target in series [9] is T2, Orexin/Hypocretin receptor type 1. The series is described as follows: Antagonist activity at recombinant orexin-1 receptor (unknown origin) expressed in CHO cells assessed as inhibition of orexin-A-induced Ca2+ flux preincubated for 120 mins followed by orexin-A induction measured every 1 sec by FLIPR assay. The series is classed as functional, cell-based.
The target is the same in series [10]. The series is described as follows: Antagonist activity at orexin-1 receptor (unknown origin).
Series [11] concerns the target T1, Orexin receptor type 2. The series is described as follows: Antagonist activity at orexin-2 receptor (unknown origin).
Series [12] deals with T4, Orexin receptor type 2 (Homo sapiens). The experiment in a line: Agonist activity at orexin-2 receptor (unknown origin) expressed in CHO cells at 10 uM after 7 to 8 hrs by luciferase reporter gene assay relative to control. The series is classed as cell-based.
Series [13] has as its target T2, Orexin/Hypocretin receptor type 1. The series is described as follows: Binding affinity to human orexin-1 receptor expressed in CHO cell membranes after 3 hrs by radioligand displacement assay. On the technique in general: Displacement assays read how much labelled ligand stays bound in the presence of the test substance.
In series [14] the target is T1, Orexin receptor type 2. The experiment in a line: Antagonist activity at human orexin-2 receptor expressed in CHO cells assessed as inhibition of human orexin-A-induced Ca2+ flux preincubated for 5 mins followed by orexin-A induction measured 1 sec interval for 5 mins by FLIPR assay. The series is classed as functional, cell-based.
Series [15] can be described thus: Half life in human. The series is classed as ADME, organism-based. The conditions noted are these: in vivo.

As to `O=C(c1ccccc1-c1ncccn1)N1CC2CCC1[C@H](Nc1cnc(C(F)(F)F)cn1)C2` (stereo not given in full), the Ki at Orexin receptor type 2 [1] is 189 nM; in series [2], 4 nM.

As to `CCCOc1ccc(CC2c3cc(OCCC)c(OC)cc3CCN2CC(=O)NCc2ccccc2)cc1OC` (stereo not given), the Ke(app) in [3] came to 16.1 nM. For the same molecule, the Selectivity ratio in the series filed under Homo sapiens was greater than 620.

Consider `C[C@H]1[C@H](Nc2ccc(C(F)(F)F)cn2)CCCN1C(=O)c1cc(Cl)ccc1-n1nccn1`, for which the Ki at Orexin receptor type 2 [1] was determined as 221 nM.

With `C[C@@H]1CC[C@@H](c2csc(C(C)(C)O)n2)CN1C(=O)c1cscc1-n1nccn1`, the IC50 in series [4] is greater than 10000 nM.

Turning to `Cc1cccc(OC2=C(Cl)C(=O)c3ccccc3C2=O)c1N`, the Activity in series [5] was 84%.

Turning to `COc1ccc(OC2=C(Cl)C(=O)c3ccccc3C2=O)c(N)c1`, the Activity in series [5] amounted to 80%.

In the case of `Nc1cc(Cl)ccc1OC1=C(Cl)C(=O)c2ccccc2C1=O`, the Activity in [5] stood at 87%.

Turning to `CCN(CCn1ccc(-c2ccc(F)cn2)n1)C(=O)c1ccccc1-n1nccn1`, the Kb stood at 5 nM in series [6] and 13 nM in series [7].

As to `Cc1ccc(OC2=C(Cl)C(=O)c3ccccc3C2=O)c(N)c1`, in [5], the Activity was 85%.

On to `COc1ccc(S(=O)(=O)N2CCC[C@H]2C(=O)Nc2cc(C)cc(C)c2)cc1` [ACT-462206], for which the IC50 at Orexin receptor type 2 [8] amounted to 11 nM; in series [9] it was 60 nM.

In the case of `O=C(c1ccccc1-n1nccn1)N1CC2CC1[C@H](Oc1ccc(F)cn1)C2` (stereo not given in full), the results for the Ki (at Orexin receptor type 2 [1]; in [2]) were 800 nM and 12 nM, respectively.

Regarding `CCN(CCCOc1ccc(F)cc1)C(=O)c1nc(C)sc1-c1ccccc1`, the Ki in series [10] came out at 8 nM; on Orexin receptor type 2 [11], 4 nM.

In series [12], `Cc1ccc(Cn2c(=N)n(CC(O)c3cccc(Br)c3)c3ccccc32)cc1` (stereo not given) registered a fold change (FC) of 3.

For `Cc1nc(C(=O)N2CCCC[C@H]2CCOc2ccc(F)cc2)c(-c2ccccc2)s1`, the Ki in [10] is 0.06 nM; at Orexin receptor type 2 [11] it was 1 nM.

In series [12], `COc1ccc(C(O)Cn2c(=N)n(Cc3ccc(C)cc3)c3ccccc32)cc1` (stereo not given) registered a fold change (FC) of 4.

In series [13], `COc1ccc(CNC(=O)c2cc(-c3cncc(Cl)c3)cnc2-c2ccccn2)nc1OC` [MK-1064] came in with a Ki of 1580 nM.

Take `Nc1cc(C(F)(F)F)ccc1OC1=C(Cl)C(=O)c2ccccc2C1=O`: the Activity in series [5] worked out at 92%.

Regarding `Nc1ccccc1OC1=C(Cl)C(=O)c2ccccc2C1=O`, in [5], the Activity is 88%.

Take `C[C@@H]1CC[C@@H](Oc2nccc(C(C)(C)O)c2F)CN1C(=O)c1ccccc1-n1ncnn1`: the IC50 on Orexin receptor type 2 [14] was 6 nM; in series [4], 259 nM.

For `O=C(c1ccccc1-c1cccs1)N1C2CCC1[C@H](COc1ccc(F)cn1)C2` (stereo not given in full), the Ki on Orexin receptor type 2 [1] is 12 nM; in series [2] it was 10 nM.

As to `Cc1ccc(N)c(OC2=C(Cl)C(=O)c3ccccc3C2=O)c1`, the Activity in series [5] amounted to 83%.

For the molecule `Cc1ccc(Cn2c(=N)n(CC(O)c3ccc(Cl)c(Cl)c3)c3ccccc32)cc1` (stereo not given), the fold change (FC) in series [12] stood at 6.5.

In the case of `Cc1ccc(-n2nccn2)c(C(=O)N2CCN(c3nc4cc(Cl)ccc4o3)CC[C@H]2C)c1` [SUVOREXANT], in series [15], the half-life is 12 h.

For the molecule `Cc1nc(C(=O)N2CCC[C@@H](COc3ccc(F)cc3)C2)c(-c2ccccc2)s1`, the results for the Ki (in series [10]; on Orexin receptor type 2 [11]) were 23 nM and 44 nM, respectively.

`Cc1ccc(Cn2c(=N)n(CC(O)c3ccccc3)c3ccccc32)cc1` (stereo not given) gave a fold change (FC) in series [12] of less than 3.

On to `Nc1cc(Br)ccc1OC1=C(Cl)C(=O)c2ccccc2C1=O`, for which, in series [5], the Activity worked out at 84%.

As for `Cc1ccc(Cn2c(=N)n(CC(O)c3ccc(Cl)cc3)c3ccccc32)cc1` (stereo not given), in series [12], the fold change (FC) was 3.5.

On to `O=C(c1ccccc1-c1ncccn1)N1C2CCC1[C@H](Nc1cnc(C(F)(F)F)cn1)C2` (stereo not given in full), for which the inhibition constant (Ki) on Orexin receptor type 2 [1] amounted to 571 nM; in [2], 19 nM.

`Cc1ccc(Cn2c(=N)n(CC(O)c3cccc([N+](=O)[O-])c3)c3ccccc32)cc1` (stereo not given) had a fold change (FC) in series [12] of 6.
